Source: patent US20240279236A1, “COMPOUNDS AND METHODS OF TREATING TUBERCULOSIS” (Fimbrion Therapeutics, Inc., priority 2021, published 2024)

Each molecule was assayed on WT Mtb Erdman strain (assay: Microplate Alamar Blue Assay (MABA), Mtb growth inhibition). Details: Mycobacterium tuberculosis, ERDMAN, 168 h, Middlebrook 7H9 media, 7 days at 37° C. in 5% CO2.
Type: cell-based, Mycobacterium tuberculosis

Row | SMILES | IC50 [nM]
1 | Fc1ccc([C@@H]2C[C@H]2Nc2nc(-c3ccccn3)nc3sc(Cl)cc23)cc1F [Example 32, 6-chloro-N-((1R,2S)-2-(3,4-difluorophenyl)cyclopropyl)-2-(pyridin-2-yl)thieno[2,3-d]pyrimidin-4-amine] | 3500
2 | Cc1cc2c(N[C@@H]3C[C@H]3c3ccc(F)c(F)c3)nc(-c3ccccn3)nc2s1 [Example 33, N-((1R,2S)-2-(3,4-difluorophenyl)cyclopropyl)-6-methyl-2-(pyridin-2-yl)thieno[2,3-d]pyrimidin-4-amine] | 4300
3 | CCc1nc(NCCCc2ccc(OC(F)(F)F)cc2)c2cc(C)sc2n1 [Example 34, 2-ethyl-6-methyl-N-(3-(4-(trifluoromethoxy)phenyl)propyl)thieno[2,3-d]pyrimidin-4-amine] | 270
4 | FC(F)(F)Oc1ccc(CCCNc2nc(-c3ccccn3)nc3sccc23)cc1 [Example 35, 2-(pyridin-2-yl)-N-(3-(4-(trifluoromethoxy)phenyl)propyl)thieno[2,3-d]pyrimidin-4-amine] | 2200
5 | Cc1cc2c(NCCCc3ccc(OC(F)(F)F)cc3)nc(C(F)(F)F)nc2s1 [Example 36, 6-methyl-N-(3-(4-(trifluoromethoxy)phenyl)propyl)-2-(trifluoromethyl)thieno [2,3-d]pyrimidin-4-amine] | 2100
6 | CCc1nc(NCCc2cccc(OC)c2)c2cc(C)sc2n1 [Example 37, 2-ethyl-N-(3-methoxyphenethyl)-6-methylthieno[2,3-d]pyrimidin-4-amine] | > 7900
7 | Cc1cc2c(N[C@@H]3C[C@H]3c3ccc(F)c(F)c3)nc(-c3ccncn3)nc2s1 [Example 38, N-((1R,2S)-2-(3,4-difluorophenyl)cyclopropyl)-6-methyl-2-(pyrimidin-4-yl)thieno[2,3-d]pyrimidin-4-amine] | 2000
8 | CCc1nc(NCCc2cccc([N+](=O)[O-])c2)c2cc(C)sc2n1 [Example 39, 2-ethyl-6-methyl-N-(3-nitrophenethyl)thieno [2,3-d]pyrimidin-4-amine] | > 8800
9 | CCc1nc(NCCOc2ccc(OC)cc2)c2cc(C)sc2n1 [Example 40, 2-ethyl-N-(2-(4-methoxyphenoxy)ethyl)-6-methylthieno[2,3-d]pyrimidin-4-amine] | 3600
10 | Cc1cc2c(N[C@@H]3C[C@H]3c3ccc(F)c(F)c3)nc(-c3ncccn3)nc2s1 [Example 41, N-((1R,2S)-2-(3,4-difluorophenyl)cyclopropyl)-6-methyl-2-(pyrimidin-2-yl)thieno[2,3-d]pyrimidin-4-amine] | > 10000
11 | Cc1cc2c(N[C@@H]3C[C@H]3c3ccc(F)c(F)c3)nc(-c3nccs3)nc2s1 [Example 42, N-((1R,2S)-2-(3,4-difluorophenyl)cyclopropyl)-6-methyl-2-(thiazol-2-yl)thieno[2,3-d]pyrimidin-4-amine] | 8100
12 | Cc1cc2c(N[C@@H]3C[C@H]3c3ccc(F)c(F)c3)nc(C3CC3)nc2s1 [Example 43, 2-cyclopropyl-N-((1R,2S)-2-(3,4-difluorophenyl)cyclopropyl)-6-methylthieno[2,3-d]pyrimidin-4-amine] | 2400
13 | Cc1cc2c(N[C@@H]3C[C@H]3c3ccc(F)c(F)c3)nc(-c3cccnc3)nc2s1 [Example 44, N-((1R,2S)-2-(3,4-difluorophenyl)cyclopropyl)-6-methyl-2-(pyridin-3-yl)thieno[2,3-d]pyrimidin-4-amine] | 6300
14 | Fc1ccc([C@@H]2C[C@H]2Nc2nc(-c3ccccn3)nc3sc(C(F)(F)F)cc23)cc1F [Example 45, N-((1R,2S)-2-(3,4-difluorophenyl)cyclopropyl)-2-(pyridin-2-yl)-6-(trifluoromethyl)thieno [2,3-d]pyrimidin-4-amine] | 2800
15 | Cc1cc2c(N[C@@H]3C[C@H]3c3ccc(F)c(F)c3)nc(-c3ccc(F)cn3)nc2s1 [Example 46, N-((1R,2S)-2-(3,4-difluorophenyl)cyclopropyl)-2-(5-fluoropyridin-2-yl)-6-methylthieno[2,3-d]pyrimidin-4-amine] | 2200
16 | Cc1cc2c(N[C@@H]3C[C@H]3c3ccc(F)c(F)c3)nc(-c3ccncc3)nc2s1 [Example 47, N-((1R,2S)-2-(3,4-difluorophenyl)cyclopropyl)-6-methyl-2-(pyridin-4-yl)thieno[2,3-d]pyrimidin-4-amine] | > 8800
17 | Cc1cc2c(NCCCc3ccc(C(F)(F)F)cc3)nc(C(F)(F)F)nc2s1 [Example 48, 6-methyl-2-(trifluoromethyl)-N-(3-(4-(trifluoromethyl)phenyl)propyl)thieno[2,3-d] pyrimidin-4-amine] | 2600
18 | COc1ccc(CCCNc2nc(C(F)(F)F)nc3sc(C)cc23)cc1 [Example 49, N-(3-(4-methoxyphenyl)propyl)-6-methyl-2-(trifluoromethyl)thieno [2,3-d]pyrimidin-4-amine] | 2000
19 | Cc1cc2c(N[C@@H]3C[C@H]3c3ccc(F)c(F)c3)nc(C(C)(F)F)nc2s1 [Example 50, 2-(1,1-difluoroethyl)-N-((1R,2S)-2-(3,4-difluorophenyl)cyclopropyl)-6-methylthieno[2,3-d]pyrimidin-4-amine] | 1100
20 | Cc1cc2c(NCCCc3ccccc3)nc(C(C)(C)C)nc2s1 [Example 51, 2-(tert-butyl)-6-methyl-N-(3-phenylpropyl)thieno [2,3-d]pyrimidin-4-amine] | > 10000
21 | CCCc1nc(N[C@@H]2C[C@H]2c2ccc(F)c(F)c2)c2cc(C)sc2n1 [Example 52, N-((1R,2S)-2-(3,4-difluorophenyl)cyclopropyl)-6-methyl-2-propylthieno[2,3-d]pyrimidin-4-amine] | 810

Row | SMILES | IC50 [nM]
22 | CSc1nc(N[C@@H]2C[C@H]2c2ccc(F)c(F)c2)c2cc(C)sc2n1 [Example 53, N-((1R,2S)-2-(3,4-difluorophenyl)cyclopropyl)-6-methyl-2-(methylthio)thieno[2,3-d]pyrimidin-4-amine] | 240
23 | CCCc1nc(NCCCc2ccccc2)c2cc(C)sc2n1 [Example 54, 6-methyl-N-(3-phenylpropyl)-2-propylthieno[2,3-d]pyrimidin-4-amine] | 310
24 | CSc1nc(NCCCc2ccccc2)c2cc(C)sc2n1 [Example 55, 6-methyl-2-(methylthio)-N-(3-phenylpropyl)thieno [2,3-d]pyrimidin-4-amine] | 17
25 | Cc1cc2c(N[C@@H]3C[C@H]3c3ccc(F)c(F)c3)nc(-c3ccc(F)cc3)nc2s1 [Example 56, N-((1R,2S)-2-(3,4-difluorophenyl)cyclopropyl)-2-(4-fluorophenyl)-6-methylthieno[2,3-d]pyrimidin-4-amine] | 4200
26 | Cc1cc2c(NCCCc3ccccc3)nc(-c3ncco3)nc2s1 [Example 57, 6-methyl-2-(oxazol-2-yl)-N-(3-phenylpropyl)thieno [2,3-d]pyrimidin-4-amine] | 4100
27 | Cc1cc2c(NCCCc3ccccc3)nc(C3(N)CC3)nc2s1 [Example 58, 2-(1-aminocyclopropyl)-6-methyl-N-(3-phenylpropyl)thieno [2,3-d]pyrimidin-4-amine] | 5000
28 | CCc1nc(NCCCc2ccc(F)c(F)c2)c2cc(C)sc2n1 [Example 59, N-(3-(3,4-difluorophenyl)propyl)-2-ethyl-6-methylthieno[2,3-d]pyrimidin-4-amine] | 430
29 | Cc1cc2c(NCCCc3ccc(F)c(F)c3)nc(C(F)(F)F)nc2s1 [Example 60, N-(3-(3,4-difluorophenyl)propyl)-6-methyl-2-(trifluoromethyl)thieno [2,3-d]pyrimidin-4-amine] | 4900
30 | CCc1nc(NC/C=C/c2ccccc2)c2cc(C)sc2n1 [Example 61, N-cinnamyl-2-ethyl-6-methylthieno[2,3-d]pyrimidin-4-amine] | 70
31 | CCc1nc(NCCNc2ccccc2)c2cc(C)sc2n1 [Example 62, N1-(2-ethyl-6-methylthieno[2,3-d]pyrimidin-4-yl)-N2-phenylethane-1,2-diamine] | 810
32 | Cc1cc2c(NCCCc3ccccc3)nc(-c3cccs3)nc2s1 [Example 63, 6-methyl-N-(3-phenylpropyl)-2-(thiophen-2-yl)thieno[2,3-d]pyrimidin-4-amine] | 1900
33 | CCc1nc(NCCCOc2ccccc2)c2cc(C)sc2n1 [Example 64, 2-ethyl-6-methyl-N-(3-phenoxypropyl)thieno [2,3-d]pyrimidin-4-amine] | 1700
34 | CCc1nc(NCCOc2ccc(Br)cc2)c2cc(C)sc2n1 [Example 65, N-(2-(4-bromophenoxy)ethyl)-2-ethyl-6-methylthieno[2,3-d]pyrimidin-4-amine] | 2800
35 | CCc1nc(NCCC(C)(C)c2ccccc2)c2cc(C)sc2n1 [Example 66, 2-ethyl-6-methyl-N-(3-methyl-3-phenylbutyl)thieno [2,3-d]pyrimidin-4-amine] | 6000
36 | CCc1nc(NCCc2ccc(O)cc2)c2cc(C)sc2n1 [Example 67, 4-(2-((2-ethyl-6-methylthieno[2,3-d]pyrimidin-4-yl)amino)ethyl)phenol] | > 10000
37 | CCc1nc(NCCS(=O)(=O)c2ccccc2)c2cc(C)sc2n1 [Example 68, 2-ethyl-6-methyl-N-(2-(phenylsulfonyl)ethyl) thieno[2,3-d]pyrimidin-4-amine] | > 10000
38 | CCc1nc(NCCCOc2ccc(Cl)cc2)c2cc(C)sc2n1 [Example 69, N-(3-(4-chlorophenoxy)propyl)-2-ethyl-6-methylthieno[2,3-d]pyrimidin-4-amine] | 1100
39 | CCc1nc(NCCCc2ccc(O)cc2)c2cc(C)sc2n1 [Example 70, 4-(3-((2-ethyl-6-methylthieno[2,3-d]pyrimidin-4-yl)amino)propyl) phenol] | 230
40 | CSc1nc(NCCCOc2ccc(Cl)cc2)c2cc(C)sc2n1 [Example 71, N-(3-(4-chlorophenoxy)propyl)-6-methyl-2-(methylthio)thieno[2,3-d]pyrimidin-4-amine] | 350
41 | Cc1cc2c(NCCCOc3ccc(Cl)cc3)nc(C(F)(F)F)nc2s1 [Example 72, N-(3-(4-chlorophenoxy)propyl)-6-methyl-2-(trifluoromethyl)thieno [2,3-d]pyrimidin-4-amine] | 3900
42 | Cc1cc2c(NCCCc3ccccc3)nc(C(C)(C)N)nc2s1 [Example 73, 2-(2-aminopropan-2-yl)-6-methyl-N-(3-phenylpropyl)thieno [2,3-d]pyrimidin-4-amine] | > 10000
